Literature values in patent publication US20240216329A1, “PUTRESCINE TOPICAL FORMULATIONS” (VIVIER CANADA INC., priority 2017, published 2024).

What was measured:
[1] = tested on: collagen cross-linking (fibroblast tissue transglutaminase); conditions: in vitro and in vivo
scar fibroblasts = conditions: human harvested scars

collagen cross-linking [1]: reduce collagen cross-linking
Compound: NCCCCN [putrescine, 1,4-diaminobutane]
apoptosis of scar fibroblasts (scar fibroblasts): increase in apoptosis of scar fibroblasts
barrier function of the epidermis (epidermis of eroded skin; eroded skin, topical): increasing its barrier function
thickness of the stratum lucidum / inner strata of epidermis (epidermis of eroded skin; stratum lucidum in animals, inner strata of human epidermis): increasing
